Test results from US11738072B2, “Tumor vaccine and uses thereof” (WestVac Biopharma Co., Ltd., priority 2017, dated 2023).

Legend:
[1] = test system: mouse cervical cancer cell line U14; assay: Mice U14 subcutaneous model, complex combined with chemotherapy; format: in vivo, C57 female mice; conditions: U14 sc
Procedure: C57 female mice aged 6-8 weeks were raised. The mouse cervical cancer cell line U14 cultured to the logarithmic growth phase was prepared into a cell suspension and the cell density was 2×10^7/ml. Experimental animals were subcutaneously injected on the right back, with an injection system of 100 μl per mouse. When the tumor could be palpated (tumor volume is about 4 mm×4 mm×3 mm, i.e. the 5th day after inoculation), the mice were randomly divided into 6 groups, and administrated every 3 days for a total of 8 times according to the grouping and treatment scheme in Table 16. The tumor volume was measured every three days. After administration for 8 times, the mice were killed and subcutaneous tumors were dissected for examination.
Wherein, the administration volume is 100 μl per mouse, DDP is intraperitoneally administrated once a week. DDP is Cisplatin and LP is pMVA-1/DOTAP complex.

[2] = test system: A549 cells; assay: ROS level by H2DCF-DA fluorescence probe, flow cytometry; format: cell-based
Procedure: (1) Sample loading: […] (3) […] CM-H2DCFDA fluorescent probe (made by Sigma) was added to the resuspended cells prepared in Step (2), incubated at 37° C. for 0.5 h, washed with PBS and resuspended; (4) The resuspended cells in Step (3) were tested with flow cytometry (Novocyte), and the test results were analyzed by Novoexpress software.

[3] = test system: A549 cells; assay: Death ratio of A549 cells pretreated with NAC, flow cytometry; format: cell-based; conditions: pretreated with NAC before pMVA-1/DOTAP complex

Q: Which results are given for `N.N.[Cl][Pt][Cl]` [Cisplatin]?
A: lymphocyte infiltration in tumor tissue [1]: less common; tumor volume vs NS group, DOTAP group and pMVA-1 group ([1]; Q3d x 8): significantly lower; tumor growth ([1]; Q3d x 8, Cisplatin ip once a week): slow tumor growth

Q: With `OO` [H2O2] as the compound, how does the “intracellular ROS level” value ([2]; A549, 3 h, H2O2 at 200 μM, *P<0.05) read?
A: The value was “increased significantly”.

Q: What does the source list for `CC(=O)N[C@@H](CS)C(=O)O` [NAC, N-Acetyl-L-cysteine]?
A: intracellular ROS level after NAC pretreatment ([2]; A549 pretreated with 5 mM NAC before pMVA-1/DOTAP complex): decreased significantly; death ratio of A549 cells [3]: significantly reduced
